Test results from patent publication US7087575B2, “Treating the effect of nicotine” (Mayo Foundation for Medical Education and Research, priority 2002, dated 2006).

Key:
[1] = system: rats; experiment: Nicotine sensitization, weekly treatment for six weeks, locomotor activity; assay type: in vivo, rat
Method: (§1) Animals and treatment protocol: Male Sprague-Dawley rats weighing 200–250 g were housed in a temperature-controlled room with free access to food and water under artificial 12 hour light/dark cycle. All tests were conducted during the light cycle. The animals received an intraperitoneal (i.p.) injection of either NT69L (1 mg/kg) or an equivalent volume (100 μl) of saline. Thirty minutes after the first injection, the rats received subcutaneous (s.c.) injections of saline or nicotine (0.35 mg/kg). These injections were repeated once a day for 15 days. On days 1 and 15, rats were placed in a Plexiglass Opto-Varimax Minor motility chamber (Columbus Instruments, Columbus, Ohio) and allowed to acclimate for one hour. Baseline activity was recorded for 30 minutes for each rat. The rats then were injected with either saline or NT69L and replaced in the chamber. After 30 minutes, each rat was injected with either saline or nicotine and returned to the chamber. Activity was recorded for 60 minutes. After testing for locomotor activity on day 15, animals were sacrificed. Brain sections were dissected on ice and maintained on dry ice until they were frozen at −80° C., at which temperature they were stored until being assayed. [^3H] cytisine binding: Nicotinic receptor binding sites in membrane homogenates of frozen tissue were measured using [^3H] cytisine according to the method of Pabreza et al. [(1991) Mol. Pharmacol. 39:9–12]. Frozen tissue was resuspended in 50 mM Tris-HCl buffer (pH 7.4), homogenized with a Brinkmann Polytron (setting 6), and washed twice in fresh Tris buffer by centrifugation at 35000×g. The resulting pellets were resuspended in buffer. Aliquots of homogenates were added to tubes containing [^3H] cytisine in the presence or absence of 100 μM nicotine and incubated in a final volume of 250 μl for 75 minutes at 4° C. The binding reactions were terminated by filtration through GF/B filter paper that was mounted on a Brandel cell harvester. Filters were presoaked in 0.5% polyethylenimine to reduce binding of radioligand to the filter. The filters were washed 3 times with cold 0.9% NaCl and counted in a scintillation counter. The data were analyzed using the PC version of the ligand software program. Specific binding was defined as the difference between binding in the presence and absence of 100 μM nicotine.
For a longer term study of nicotine sensitization, rats were divided into seven groups that were treated once a week for six weeks with saline or NT69L followed by a challenge with saline or 0.35 mg/kg nicotine. These experiments allowed examination of both the initiation and expression phases of sensitization. Group 1 received saline/saline each week. Group 2 received saline/saline for the first five weekly treatments, and saline/nicotine in the sixth week. Group 3 received saline/nicotine each week. Group 4 received NT69L/saline each week. Group 5 received NT69L/nicotine each week. Group 6 received NT69L/nicotine for the first five weekly treatments, and saline/nicotine in the sixth week. Group 7 received saline/nicotine for the first five weekly treatments, and NT69L/nicotine in the sixth week. Locomotor activity was measured after each weekly treatment, as described in Example 1.

[2] = system: dopamine and its metabolites; experiment: Dopamine and metabolites in striatum and PFC by HPLC-EC after in vivo treatment; design: species or system rat
Method: Striatal dopamine: Brain dopamine levels were analyzed using high performance liquid chromatography with electrochemical detection (HPLC-EC, ESA, Inc., Chemsford, Mass.), according to previously described procedures (Kilts et al. (1981) J. Chromatogr. 225:347–357; and Krstulovic (1982) J. Chromatogr. 229:1–34). Rats were sacrificed by decapitation, brains were removed, and the striatal tissue was weighed and homogenized in 10 volumes of ice-cold 0.1 N perchloric acid containing 10 mM EDTA. Tissue homogenates were centrifuged at 26,000×g for 10 minutes at 4° C. A 20 μl aliquot of the diluted supernatant was injected onto an HPLC system with an MD-150/RP-C18 column (ESA). The mobile phase contained 10% acetonitrile with 75 mM sodium dihydrogen phosphate, 1.7 mM 1-octane sulfonic acid sodium salt, 0.01% triethylamine, and 25 μM EDTA, pH 3.0. The flow rate was maintained at 0.5 ml/minute. The detector potentials were set at: 350 mV; E1:−175 mV and E2:250 mV. The concentration of dopamine in each sample was quantified by comparison of area under curve (AUC) between samples and external standards run on the same day.
Sprague Dawley rats were treated as described above. Animals were sacrificed on day 15 after being tested for locomotor activity. Striatal and PFC tissues were harvested on ice and frozen at −80° C. until being assayed for dopamine metabolism as detailed in Example 1.

[3] = system: norepinephrine; experiment: Norepinephrine levels in brain tissue after in vivo treatment; design: species or system rat
Method: Sprague Dawley rats were treated as described above. Animals were sacrificed on day 15 after being tested for locomotor activity. PFC sections were harvested on ice and frozen at −80° C. until being assayed for norepinephrine levels.

[4] = system: Nicotinic receptor binding sites; experiment: [3H] cytisine binding in brain membrane homogenates after in vivo treatment; design: species or system rat; conditions: for increase in cytisine binding in the VTA: vs saline control, only chronic injection of NT69L significant (P<0.05)
Method: as §1
Sprague Dawley rats were maintained and treated as described above. Animals were sacrificed on day 15 after being tested for locomotor activity. PFC and VTA sections were harvested on ice and frozen at −80° C until being assayed for cytisine binding as described in Example 1.

[5] = system: Sprague Dawley rats; experiment: Nicotine-induced locomotor activity, daily treatment for 15 days; assay type: in vivo, rat
Method: as §1
Sprague Dawley rats were divided into seven groups and injected daily for 14 days with the treatment listed outside the parentheses under each pair of columns in FIG. 1. On day 15, the rats were injected with the treatment listed inside the parentheses under each pair of columns. Locomotor activity was recorded on days 1 and 15. Rats were placed in a motility chamber for one hour for acclimation. A 30 minute baseline was recorded for each rat. The rats were injected with either saline or NT69L and placed in the chamber for 30 minutes. Each rat was then removed from the chamber, injected with either nicotine or saline, and returned to the chamber. Activity was recorded for 60 minutes, and is shown in counts per 10 minute interval.

[6] = system: dopamine D2 receptor; experiment: Dopamine D2 receptor binding assay ([3H] raclopride) in striatum after in vivo treatment; design: species or system rat
Method: Dopamine D2 receptor binding assay: Homogenized brain tissue was assayed for dopamine D2 receptor binding by the method of Bowden et al. [(1997) Brain Res. 752:227–233]. Briefly, brain tissue was homogenized in buffer (50 mM Tris-HCl, 5 mM KCl and 120 mM NaCl, pH 7.5) and centrifuged at 26,000×g for 10 minutes at 4° C. Pellets were resuspended in buffer to 1 mg/10 μl and immediately used for binding. Aliquots of […] tissue homogenates were added to 25 PI [^3H] raclopride and 25 μl buffer (for total binding) or 25 μl of […] sulipride (for nonspecific binding) in a total volume of 250 μl, and incubated at room temperature for 90 minutes. Membrane-bound radioactivity was recovered by filtration under vacuum through Whatman GF/B filters using a Brandel cell harvester. Filters were washed with ice-cold PBS and radioactivity was determined by liquid scintillation counting. Protein levels were quantified using the Micro BCA assay (Pierce, Rockford, Ill.).

CN1CCCC1c1cccnc1 (stereo not shown) [nicotine]
locomotor activity after nicotine challenge without NT69L ([1]; nicotine 0.35 mg/kg in the sixth week only (group 2)): resulted in hyperactivity | locomotor activity after nicotine challenge without NT69L ([1]; nicotine challenge each week (group 3)): resulted in increased activity | levels of dopamine and its metabolites as compared to saline control ([2]; PFC, fifteen daily injections of nicotine): 232% | increase in levels of dopamine and its metabolites ([2]; PFC, single injection of nicotine, P<0.05): 400% | increase in striatal dopamine levels ([2]; striatum, single injection of nicotine vs sal/sal(sal/sal), P<0.05): 192% | increase of norepinephrine levels in the PFC ([3]; acute and chronic treatment with nicotine vs saline control, P<0.05): 213–300% | increase of cytisine binding in prefrontal cortex ([4]; fifteen daily injections of nicotine vs saline control, P<0.05): 62% | cytisine binding in the PFC ([4]; single nicotine injection on day 15 vs sal/sal(sal/sal)): tended to increase cytisine binding in the PFC, but not to a significant level | increase in cytisine binding in the VTA [4]: 35% | increase in peak activity (sensitization) ([5]; daily nicotine injections, day 1 vs. day 15): > 60% | peak level of locomotor activity ([5]; single injection of nicotine 0.35 mg/kg s.c. vs control group sal/sal(sal/sal), P<0.001): significantly increased

N-methyl-Arg-Lys-Pro-L-neo-Trp-tert-Leu-Leu [NT69L]
dopamine (D2) receptor binding in striatum across nicotine and NT69L treatment groups [6]: No difference | effect on nicotine-induced hyperactivity ([1]; NT69L before nicotine challenge each week (group 5)): largely prevented the hyperactivity | activity after NT69L in the sixth week ([1]; five weeks nicotine without NT69L, then NT69L/nicotine in week six (group 7)): significant decrease in activity | initiation and expression of nicotine sensitization ([1]; weekly treatment for six weeks): effectively blocked | lowering of the nicotine-induced increase in dopamine ([2]; PFC, injection of NT69L for 15 days): 62% | lowering of the nicotine-induced increase in dopamine ([2]; PFC, pretreating with NT69L before nicotine injection on day 15): 28% | effect on dopamine levels in the striatum ([2]; pretreatment with NT69L): did not significantly affect | reduction in norepinephrine levels ([3]; PFC, daily injections of NT69L, single injection of nicotine): 40% | norepinephrine in the striatum between treatment groups ([3]; striatum): No significant differences | reduction of cytisine binding caused by acute nicotine injection ([4]; PFC, NT69L daily for 15 days, acute, but not chronic, nicotine): 62% | reduction of the increase in cytisine binding caused by 15 daily injections of nicotine ([4]; PFC, acute injection of NT69L prior to nicotine on day fifteen): 65% | increase in cytisine binding in the VTA [4]: 35% | reduction of nicotine-induced hyperactivity ([5]; acute injection of NT69L 1 mg/kg i.p. on day 1, 30 minutes prior to nicotine, P<0.001): 24% | reduction of the magnitude of locomotor sensitization ([5]; daily injection of NT69L): 24% | locomotor activity 69/sal vs sal/sal groups (sedation) ([5]; day 1, NT69L 1 mg/kg i.p. without nicotine): no significant difference | activity compared with saline after fifteen days of treatment ([5]; sal/nic(sal/nic) vs. 69/nic(69/nic), P<0.05): statistically significant reduction in activity | sensitized nicotine-induced activity after NT69L ([5]; single injection of NT69L 30 minutes prior to nicotine on the fifteenth day of nicotine administration, P<0.001): 10 % of control
